Where “and” joins values, the source holds several entries; their conditions need not be identical. Equal entries are not always repeated. Inconclusive results and toxic doses are left out. How the source made its calls: active means survival T/C of 150% or more; inactive means T/C below 125% in these data.
Test system: P388 leukemia ip, CD2F1 mice, survival T/C
Experiment: NCI In Vivo Anticancer Drug Screen. Data for tumor model P388 Leukemia (intraperitoneal) in CD2F1 (CDF1) mice
Settings: endpoint: median survival time, higher = longer survival
Method in brief: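 Mice carrying the transplanted tumor received test compound or vehicle. Survival was recorded in each group, and the value is the treated-group measurement divided by that of the vehicle-treated control group.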

[1] = dose: 50.0 mg/kg/injection, schedule: Q01DX009 (ip), vehicle: Klucel (hydroxypropylcellulose) (HPC)
[2] = dose: 100.0 mg/kg/injection, schedule: Q01DX009 (ip), vehicle: Klucel (hydroxypropylcellulose) (HPC)
[3] = dose: 200.0 mg/kg/injection, schedule: Q01DX009 (ip), vehicle: Klucel (hydroxypropylcellulose) (HPC)
[4] = dose: 60.0 mg/kg/injection, schedule: Q01DX005 (ip), vehicle: saline with Tween-80
[5] = dose: 120.0 mg/kg/injection, schedule: Q01DX005 (ip), vehicle: saline with Tween-80
[6] = dose: 240.0 mg/kg/injection, schedule: Q01DX005 (ip), vehicle: saline with Tween-80
[7] = dose: 12.5 mg/kg/injection, schedule: Q04DX003 (ip), vehicle: saline with Tween-80
[8] = dose: 12.5 mg/kg/injection, schedule: Q01DX005 (ip), vehicle: saline with Tween-80
[9] = dose: 50.0 mg/kg/injection, schedule: Q01DX005 (ip), vehicle: saline with Tween-80
[10] = dose: 100.0 mg/kg/injection, schedule: Q01DX005 (ip), vehicle: saline with Tween-80
[11] = dose: 200.0 mg/kg/injection, schedule: Q01DX005 (ip), vehicle: saline with Tween-80

Measured: T/C

COC1=C(OC)C(=O)C(C)(CC=C(C)C)CC1=O (stereo not drawn)
inactive: dose: 13.0 mg/kg/injection, schedule: Q01DX009 (ip), vehicle: saline + alcohol 113 % of control | dose: 25.0 mg/kg/injection, schedule: Q01DX009 (ip), vehicle: saline + alcohol 113 % of control | dose: 50.0 mg/kg/injection, schedule: Q01DX009 (ip), vehicle: saline + alcohol 103 % of control

S=C1SCN(c2ccc3c(c2)OCO3)CN1c1ccc2c(c1)OCO2
inactive: [1] 96 % of control | [2] 100 % of control | [3] 96 % of control

CN(C)C=O
inactive: dose: 12.5 mg/kg/injection, schedule: Q01DX009 (ip), vehicle: saline 103 % of control and 111 % of control | dose: 25.0 mg/kg/injection, schedule: Q01DX009 (ip), vehicle: saline 103 % of control and 107 % of control | dose: 50.0 mg/kg/injection, schedule: Q01DX009 (ip), vehicle: saline 107 % of control (2×) and 111 % of control | dose: 100.0 mg/kg/injection, schedule: Q01DX009 (ip), vehicle: saline 109 % of control and 115 % of control and 116 % of control | dose: 800.0 mg/kg/injection, schedule: Q01DX009 (ip), vehicle: saline 120 % of control | dose: 1600.0 mg/kg/injection, schedule: Q01DX009 (ip), vehicle: saline 118 % of control | dose: 2.0 % in 0.5 ml injection vol, schedule: Q01DX009 (ip), vehicle: water 107 % of control and 119 % of control | dose: 4.0 % in 0.5 ml injection vol, schedule: Q01DX009 (ip), vehicle: water 116 % of control and 119 % of control | dose: 8.0 % in 0.5 ml injection vol, schedule: Q01DX009 (ip), vehicle: water 119 % of control

Cc1nc(Br)c(Br)n1Cc1ccccc1
inactive: [4] 99 % of control | [5] 99 % of control | [6] 105 % of control

O=C(Nc1ccc(N=C=S)cc1)c1cc(Br)cc(Br)c1O
inactive: dose: 50.0 mg/kg/injection, schedule: Q01DX001 (ip), vehicle: Klucel (hydroxypropylcellulose) (HPC) 101 % of control | dose: 100.0 mg/kg/injection, schedule: Q01DX001 (ip), vehicle: Klucel (hydroxypropylcellulose) (HPC) 99 % of control

CC(=O)OCC1OC(n2cnc3c(=S)nc(N)[nH]c32)C(OC(C)=O)C1OC(C)=O (stereo not drawn)
inactive: [7] 118 % of control | dose: 25.0 mg/kg/injection, schedule: Q01DX009 (ip), vehicle: saline with Tween-80 122 % of control | dose: 50.0 mg/kg/injection, schedule: Q01DX009 (ip), vehicle: saline with Tween-80 113 % of control | dose: 300.0 mg/kg/injection, schedule: Q04DX003 (ip), vehicle: saline with Tween-80 100 % of control

C[As](C)SCCO
inactive: [8] 110 % of control | dose: 25.0 mg/kg/injection, schedule: Q01DX005 (ip), vehicle: saline with Tween-80 115 % of control | [9] 117 % of control | dose: 50.0 mg/kg/injection, schedule: Q04DX002 (ip), vehicle: saline with Tween-80 109 % of control

Cc1cc(C(=O)Nc2ccc(NC3=NCCN3)cc2)cc(C(=O)Nc2ccc(NC3=NCCN3)cc2)c1
inactive: dose: 3.12 mg/kg/injection, schedule: Q01DX005 (ip), vehicle: saline with Tween-80 100 % of control | dose: 6.25 mg/kg/injection, schedule: Q01DX005 (ip), vehicle: saline with Tween-80 107 % of control | [8] 106 % of control

COc1ccc(/C(=C/c2c(C(=O)O)oc3ccccc23)c2ccccc2)cc1
inactive: dose: 100.0 mg/kg/injection, schedule: Q01DX001 (ip), vehicle: saline with Tween-80 97 % of control | dose: 200.0 mg/kg/injection, schedule: Q01DX001 (ip), vehicle: saline with Tween-80 99 % of control

COCC(=O)Nc1ncc([N+](=O)[O-])s1
inactive: [1] 102 % of control | [2] 100 % of control | [3] 94 % of control

CC(=O)Cc1cc(-c2cc(CC(C)=O)[nH]n2)n[nH]1
inactive: dose: 60.0 mg/kg/injection, schedule: Q01DX005 (ip), vehicle: saline 98 % of control | dose: 120.0 mg/kg/injection, schedule: Q01DX005 (ip), vehicle: saline 95 % of control | dose: 240.0 mg/kg/injection, schedule: Q01DX005 (ip), vehicle: saline 102 % of control

C=CCC1=CC2(OC)C(=O)C(OC)(OC)C1C1C(OC)(OC)C(=O)C(OC)=CC12CC=C (stereo not drawn)
inactive: dose: 18.75 mg/kg/injection, schedule: Q01DX009 (ip), vehicle: Klucel (hydroxypropylcellulose) (HPC) 114 % of control and 93 % of control | dose: 37.5 mg/kg/injection, schedule: Q01DX009 (ip), vehicle: Klucel (hydroxypropylcellulose) (HPC) 99 % of control | dose: 75.0 mg/kg/injection, schedule: Q01DX009 (ip), vehicle: Klucel (hydroxypropylcellulose) (HPC) 102 % of control and 112 % of control | dose: 150.0 mg/kg/injection, schedule: Q01DX009 (ip), vehicle: Klucel (hydroxypropylcellulose) (HPC) 94 % of control | [3] 94 % of control

CCOC(=O)C(=O)Nc1c(C(=O)OC)cc(C)c(C)c1C#N
inactive: [1] 93 % of control | [2] 94 % of control | [3] 93 % of control

Cc1cc(=O)c2ccc3c(c2[nH]1)Oc1ccc2c(=O)cc(C)[nH]c2c1O3
inactive: [9] 98 % of control | [10] 101 % of control | [11] 98 % of control

CCP(=O)(CC)CC
inactive: dose: 25.0 mg/kg/injection, schedule: Q01DX005 (ip), vehicle: saline 98 % of control | dose: 50.0 mg/kg/injection, schedule: Q01DX005 (ip), vehicle: saline 105 % of control | dose: 100.0 mg/kg/injection, schedule: Q01DX005 (ip), vehicle: saline 99 % of control | dose: 200.0 mg/kg/injection, schedule: Q01DX005 (ip), vehicle: saline 99 % of control | dose: 400.0 mg/kg/injection, schedule: Q01DX005 (ip), vehicle: saline 99 % of control

CC1=CC(=O)C(C(C)C)=CC1=O
inactive: dose: 0.75 mg/kg/injection, schedule: Q01DX009 (ip), vehicle: saline with Tween-80 100 % of control | dose: 1.5 mg/kg/injection, schedule: Q01DX009 (ip), vehicle: saline with Tween-80 104 % of control | dose: 3.0 mg/kg/injection, schedule: Q01DX009 (ip), vehicle: saline with Tween-80 104 % of control

O=C(C[n+]1cccc2ccccc21)c1ccc(F)cc1
inactive: [1] 119 % of control | [2] 97 % of control | [3] 91 % of control

CCB1OCC(C2OC(O)C3OB(CC)OC32)O1 (stereo not drawn)
inactive: [9] 101 % of control and 96 % of control | [10] 96 % of control | [11] 103 % of control and 92 % of control

Nc1nc(Cl)c2nnn(C3CC(O)C(CO)C3)c2n1 (stereo not drawn)
inactive: dose: 6.25 mg/kg/injection, schedule: Q01DX005 (ip), vehicle: Klucel (hydroxypropylcellulose) (HPC) 116 % of control | dose: 12.5 mg/kg/injection, schedule: Q01DX005 (ip), vehicle: Klucel (hydroxypropylcellulose) (HPC) 112 % of control | dose: 25.0 mg/kg/injection, schedule: Q01DX005 (ip), vehicle: Klucel (hydroxypropylcellulose) (HPC) 119 % of control | dose: 50.0 mg/kg/injection, schedule: Q01DX005 (ip), vehicle: Klucel (hydroxypropylcellulose) (HPC) 110 % of control

CC(C)n1c(=S)[nH]c2ccccc2c1=O
inactive: dose: 100.0 mg/kg/injection, schedule: Q01DX009 (ip), vehicle: saline with Tween-80 90 % of control | dose: 100.0 mg/kg/injection, schedule: Q04DX003 (ip), vehicle: saline with Tween-80 95 % of control | dose: 200.0 mg/kg/injection, schedule: Q01DX009 (ip), vehicle: saline with Tween-80 90 % of control | dose: 200.0 mg/kg/injection, schedule: Q04DX003 (ip), vehicle: saline with Tween-80 95 % of control | dose: 400.0 mg/kg/injection, schedule: Q01DX009 (ip), vehicle: saline with Tween-80 95 % of control | dose: 400.0 mg/kg/injection, schedule: Q04DX003 (ip), vehicle: saline with Tween-80 91 % of control

Cc1cc(=O)c2ccc(Cl)c(C)c2[nH]1
inactive: [4] 110 % of control | [5] 93 % of control | [6] 103 % of control

CCCCCCCCCCCCCCCCC1(O)OC(=O)C(C)=C1C (stereo not drawn)
inactive: [7] 100 % of control | dose: 25.0 mg/kg/injection, schedule: Q04DX003 (ip), vehicle: saline with Tween-80 108 % of control | dose: 50.0 mg/kg/injection, schedule: Q04DX003 (ip), vehicle: saline with Tween-80 106 % of control

O=C(CNC(=O)OCc1ccccc1)NCC(=O)NC(Cc1c[nH]c2ccccc12)C(=O)O (stereo not drawn)
inactive: dose: 50.0 mg/kg/injection, schedule: Q01DX005 (ip), vehicle: suspension in saline 99 % of control | dose: 100.0 mg/kg/injection, schedule: Q01DX005 (ip), vehicle: suspension in saline 97 % of control | dose: 200.0 mg/kg/injection, schedule: Q01DX005 (ip), vehicle: suspension in saline 105 % of control

From PubChem BioAssay AID330 (DTP/NCI, 2004)
